Assay results reported in US11098010B2 (priority 2017, dated 2021).
Structures can show the parent of a compound that is named as a salt. Where two headings read alike, the source gives them in different places.

Test system: HBV rcDNA in HepDE19 cells
Test: HepDE19 assay with bDNA quantitation of HBV rcDNA
Type: cell-based, hepatitis B virus (HBV)
[1] = Hepatitis B virus, HepDE19, 168 h, read-out: DE-19 bDNA EC50 (μM), HepDE19 cells, inhibition of rcDNA formation, 7 day incubation, top concentration 25 μM
[2] = Hepatitis B virus, HepDE19, 168 h, HepDE19 cells, inhibition of rcDNA formation, 7 day incubation, top concentration 25 μM, read-out: DE-19 bDNA EC50
[3] = HepDE19 cells, inhibition of rcDNA formation, 7 day incubation, top concentration 25 μM, read-out: DE-19 bDNA EC50
[4] = read-out: DE-19 bDNA EC50, HepDE19 cells, inhibition of rcDNA formation, 7 day incubation, top concentration 25 μM

SMILES	EC50 [1]	EC50 [2]	further results
CC(C)(C)OC(=O)N1CC(F)(F)CC1COC(=O)N[C@H]1CCc2c(C(=O)Nc3ccc(F)c(Cl)c3)ccc(F)c21 (stereo partly drawn) [Compound 54, tert-Butyl 2-(((((S)-4-((3-chloro-4-fluorophenyl)carbamoyl)-7-fluoro-2,3-dihydro-1H-inden-1-yl)carbamoyl)oxy)methyl)-4,4-difluoropyrrolidine-1-carboxylate]	0.99 µM		
N#CCCOC(=O)N[C@H]1CCc2c(C(=O)Nc3ccc(F)c(Cl)c3)ccc(F)c21 [Compound 255, O—(S)-2-Cyanoethyl, N-4-(3-chloro-4-fluorophenylcarbamoyl)-7-fluoro-2,3-dihydro-1H-inden-1-yl carbamate]		0.08 µM	
CO[C@@H]1Cc2c(C(=O)Nc3ccc(F)c(Cl)c3)ccc(F)c2[C@H]1NC(=O)OCc1ccccn1 [Compound 178, O-Pyridin-2-ylmethyl, N-((1R,2R)-4-((3-chloro-4-fluorophenyl)carbamoyl)-7-fluoro-2-methoxy-2,3-dihydro-1H-inden-1-yl) carbamate]			EC50 [3]: 0.04 µM
O=C(Nc1ccc(F)c(Cl)c1)c1ccc(F)c2c1CC[C@@H]2Nc1ccccn1 [Compound 97, (S)—N-(3-Chloro-4-fluorophenyl)-7-fluoro-1-(pyridin-2-ylamino)-2,3-dihydro-1H-indene-4-carboxamide Hydrochloride]	0.22 µM		
N#Cc1ccc(COC(=O)N[C@H]2CCc3c(C(=O)Nc4ccc(F)c(Cl)c4)ccc(F)c32)nc1 [Compound 172, O-(5-Cyanopyridin-2-yl)methyl, N—(S)-(4-((3-chloro-4-fluorophenyl)carbamoyl)-7-fluoro-2,3-dihydro-1H-inden-1-yl) carbamate]	0.19 µM		
O=C(Nc1ccc(F)c(Cl)c1)c1ccc(F)c2c1CCC21NC(=O)N(Cc2ccccn2)C1=O (stereo not shown) [Compound 260, N-(3-chloro-4-fluoro-phenyl)-7-fluoro-2,5-dioxo-1-(2-pyridylmethyl)spiro [imidazolidine-4,1′-indane]-4′-carboxamide]			EC50 [3]: 13 µM
COCCOC(=O)N[C@H]1CCc2c(C(=O)Nc3ccc(F)c(Cl)c3)ccc(F)c21 [Compound 111, O-2-Methoxyethyl, N—(S)-(4-((3-chloro-4-fluorophenyl)carbamoyl)-7-fluoro-2,3-dihydro-1H-inden-1-yl) carbamate]		0.15 µM	
COC(=O)NC1CSc2c(C(=O)Nc3ccc(F)c(Cl)c3)cccc21 (single isomer, unassigned) [Compound 38, O-Methyl, N-(7-((3-chloro-4-fluorophenyl)carbamoyl)-2,3-dihydrobenzo[b]thiophen-3-yl) carbamate]	> 25 µM		
Cc1cc(NC(=O)c2cccc3c2CC[C@@H]3NC(=O)OCc2ccccn2)ccc1F [Compound 23, O-Pyridin-2-ylmethyl, N—(S)-(4-((4-fluoro-3-methylphenyl)carbamoyl)-2,3-dihydro-1H-inden-1-yl) carbamate]		0.45 µM	
O=C(N[C@H]1CCc2c(C(=O)Nc3ccc(F)c(C(F)F)c3)ccc(F)c21)OCc1ccccn1 [Compound 148, O-Pyridin-2-ylmethyl, N—(S)-(4-((3-(difluoromethyl)-4-fluorophenyl)carbamoyl)-7-fluoro-2,3-dihydro-1H-inden-1-yl)carbamate Hydrochloride]	0.12 µM		
Cc1cc(NC(=O)c2cccc3c2CC[C@@H]3NC(=O)OC[C@@H]2CCC(=O)N2)ccc1F [Compound 25, O—((S)-5-Oxopyrrolidin-2-yl)methyl, N—((S)-4-((4-fluoro-3-methylphenyl)carbamoyl)-2,3-dihydro-1H-inden-1-yl) carbamate]	1.1 µM		
CN1C(=O)NC2(CCc3c(C(=O)Nc4ccc(F)c(Cl)c4)ccc(F)c32)C1=O (single isomer, unassigned) [Compound 262, N-(3-chloro-4-fluoro-phenyl)-7′-fluoro-1-methyl-2,5-dioxo-spiro [imidazolidine-4,1′-indane]-4′-carboxamide]			EC50 [3]: 14 µM
Cc1ncsc1CCOC(=O)N[C@H]1CCc2c(C(=O)Nc3ccc(F)c(Cl)c3)ccc(F)c21 [Compound 105, O-2-(4-Methylthiazol-5-yl)ethyl, N—(S)-(4-((3-chloro-4-fluorophenyl)carbamoyl)-7-fluoro-2,3-dihydro-1H-inden-1-yl) carbamate]	0.19 µM		
CNC(=O)NC1c2c(F)ccc(C(=O)Nc3ccc(F)c(Cl)c3)c2CC1(C)C (single isomer, unassigned) [Compound 249, N-(3-Chloro-4-fluorophenyl)-7-fluoro-2,2-dimethyl-1-(3-methylureido)-2,3-dihydro-1H-indene-4-carboxamide]			EC50 [4]: 13 µM
O=C(N[C@H]1CCc2c(C(=O)Nc3ccc(F)c(Cl)c3)ccc(F)c21)OCc1ncccn1 [Compound 79, O-Pyrimidin-2-ylmethyl, N—(S)-(4-((3-chloro-4-fluorophenyl)carbamoyl)-7-fluoro-2,3-dihydro-1H-inden-1-yl) carbamate]	0.12 µM		
Cc1cc(NC(=O)c2ccc(F)c3c2CC[C@@H]3NC(=O)OCc2ccccn2)ccc1F [Compound 40, O-Pyridin-2-ylmethyl, N—(S)-(7-fluoro-4-((4-fluoro-3-methylphenyl)carbamoyl)-2,3-dihydro-1H-inden-1-yl) carbamate]		0.62 µM	

SMILES	EC50 [1]	EC50 [2]	further results
COC(=O)NC1(C)CCc2c(C(=O)Nc3ccc(F)c(Cl)c3)ccc(F)c21 (stereo not shown) [Compound 214, O-methyl, N-(4-((3-chloro-4-fluorophenyl)carbamoyl)-7-fluoro-1-methyl-2,3-dihydro-1H-inden-1-yl) carbamate]			EC50 [3]: 2.6 µM
CCCS(=O)(=O)N[C@H]1CCc2c(C(=O)Nc3ccc(F)c(Cl)c3)ccc(F)c21 [Compound 233, (S)—N-(3-Chloro-4-fluorophenyl)-7-fluoro-1-(propylsulfonamido)-2,3-dihydro-1H-indene-4-carboxamide]		0.33 µM	
COC(=O)NC1(C)CCc2c(C(=O)Nc3ccc(F)c(Cl)c3)ccc(F)c21 (stereo not shown) [Compound 217, O-Methyl, N-(4-((3-chloro-4-fluorophenyl)carbamoyl)-7-fluoro-1-methyl-2,3-dihydro-1H-inden-1-yl) carbamate]			EC50 [3]: 12 µM
O=C(N[C@H]1CCc2c(C(=O)Nc3ccc(F)c(Cl)c3)ccc(F)c21)OCc1cscn1 [Compound 124, O-Thiazol-4-ylmethyl, N—(S)-(4-((3-chloro-4-fluorophenyl)carbamoyl)-7-fluoro-2,3-dihydro-1H-inden-1-yl) carbamate]		0.06 µM	
O=C(Nc1ccncc1)N[C@H]1CCc2c(C(=O)Nc3ccc(F)c(Cl)c3)ccc(F)c21 [Compound 145, (S)—N-(3-Chloro-4-fluorophenyl)-7-fluoro-1-(3-(pyridin-4-yl)ureido)-2,3-dihydro-1H-indene-4-carboxamide]	0.93 µM		
CNS(=O)(=O)N[C@H]1CCc2c(C(=O)Nc3ccc(F)c(Cl)c3)cccc21 [Compound 230, (S)-N-(3-chloro-4-fluorophenyl)-1-((N-methylsulfamoyl)amino)-2,3-dihydro-1H-indene-4-carboxamide]		0.36 µM	
O=C(Nc1ccc(F)c(Cl)c1)c1cccc2c1CN(C1CC1)S2(=O)=O [Compound 279, N-(3-chloro-4-fluorophenyl)-2-cyclopropyl-2,3-dihydrobenzo[d]isothiazole-4-carboxamide 1,1-dioxide]		0.58 µM	
O=C(N[C@H]1CCc2c(C(=O)Nc3ccc(F)c(Cl)c3)ccc(F)c21)OCCc1ccccn1 [Compound 83, O-2-(Pyridin-2-yl)ethyl, N—(S)-(4-((3-chloro-4-fluorophenyl)carbamoyl)-7-fluoro-2,3-dihydro-1H-inden-1-yl) carbamate Hydrochloride]	0.18 µM		
O=C(NC1COc2c(C(=O)Nc3ccc(F)c(Cl)c3)ccc(F)c21)OCc1ccccn1 (single isomer, unassigned) [Compound 191, O-Pyridin-2-ylmethyl, N-(7-((3-chloro-4-fluorophenyl)carbamoyl)-4-fluoro-2,3-dihydrobenzofuran-3-yl)carbamate]			EC50 [4]: 18 µM
COC(=O)N[C@@H]1c2cccc(C(=O)Nc3ccc(F)c(Cl)c3)c2C[C@H]1OC [Compound 130, O-Methyl, N-((1R,2R)-4-((3-chloro-4-fluorophenyl)carbamoyl)-2-methoxy-2,3-dihydro-1H-inden-1-yl)carbamate]	0.1 µM		
O=C(Nc1ccc(F)c(Cl)c1)c1ccc(F)c2c1OCC2NS(=O)(=O)C1CC1 (single isomer, unassigned) [Compound 207, N-(3-chloro-4-fluorophenyl)-3-(cyclopropanesulfonamido)-4-fluoro-2,3-dihydrobenzofuran-7-carboxamide]			EC50 [3]: 14 µM
CC(C)CS(=O)(=O)N[C@H]1CCc2c(C(=O)Nc3ccc(F)c(Cl)c3)ccc(F)c21 [Compound 234, (S)—N-(3-Chloro-4-fluorophenyl)-7-fluoro-1-((2-methylpropyl)sulfonamido)-2,3-dihydro-1H-indene-4-carboxamide]		0.34 µM	
CNC(=O)NC1COc2c(C(=O)Nc3ccc(F)c(Cl)c3)ccc(F)c21 (single isomer, unassigned) [Compound 190, N-(3-Chloro-4-fluorophenyl)-4-fluoro-3-(3-methylureido)-2,3-dihydrobenzofuran-7-carboxamide]			EC50 [4]: > 25 µM
CC(=O)N1CCC(COC(=O)N[C@H]2CCc3c(C(=O)Nc4ccc(F)c(Cl)c4)ccc(F)c32)CC1 [Compound 174, O-(1-Acetylpiperidin-4-yl)methyl, N—(S)-(4-((3-chloro-4-fluorophenyl)carbamoyl)-7-fluoro-2,3-dihydro-1H-inden-1-yl) carbamate]	0.87 µM		
O=C(N[C@H]1CCc2c(C(=O)Nc3ccc(F)c(Cl)c3)ccc(F)c21)O[C@@H]1CCOC1 [Compound 170, O—(R)-Tetrahydrofuran-3-yl, N—((S)-4-((3-chloro-4-fluorophenyl)carbamoyl)-7-fluoro-2,3-dihydro-1H-inden-1-yl) carbamate]		0.26 µM	
